Data reported in US10322143B2, “Inhibitors of ADAMTS4 or ADAMTS5 for use in preventing or treating cardiac remodeling and chronic heart failure” (Universitetet i Oslo, priority 2013, dated 2019).

Key:
aortic banding rats = test: Aortic banding rat model: echocardiography and organ weights after PPS-treatment; assay type: in vivo; settings: for Aorta / FS (fractional shortening) / Heart wt / IVSd (interventricular septal thickness at diastole) / LAD (left atrial diameter) / LV wt / LVDd (left ventricular diameter at diastole) / LVDs (left ventricular diameter at systole) / Lung wt / PWd (posterior wall thickness at diastole) / RV wt / Tissue Doppler Maximal velocity / Tissue Doppler Minimal velocity / HR (heart rate): PPS 6 mg/kg s.c. every third day, mean ± SEM; for HR (heart rate): in bpm (unit assumed)
Source text: The experimental procedures conformed to the European Convention for the Protection of Vertebrate Animals Used for Experimental and Other Scientific Purposes, and the protocols were approved by the Norwegian Council for Animal Research. Male Wistar rats weighing 160-170 g underwent AB essentially as described previously (Lunde et al. Physiol Genomics 2011. 44(2):162-72). Briefly, the ascending aorta was dissected free through a right hemithoracotomy, and ligated (3-0 silk) against a steel wire. The sham-operated rats (sham) were subjected to the same surgical procedure with a loose suture around the aorta. In all surgical procedures performed, a mixture of 67% N2O, 28% O2, and 4% isoflurane in an anaesthesia chamber was used for preoperative sedation. To maintain anaesthesia preoperatively, a mixture of 69% N2O, 29% O2, and 2% isoflurane was given by the endotracheal tube and the animals were ventilated on a respirator (Zoovent, Triumph Technical Services, Milton Keynes, UK). Buprenorphine was given as postoperative analgesia after AB.
In vivo heart function was evaluated using the Vevo2100 system (Visualsonics Inc, Canada) as previously described (Sjaastad et al. J Appl Physiol 2000; 89:1445-54). Thereafter, the heart was excised under deep anaesthesia, washed in saline and blotted dry to remove blood in the cardiac chambers. The heart chambers were separated by rapid dissection, before being snap-frozen in liquid nitrogen and stored at −70° C. until further analyses. For AB rats not receiving PPS- or vehicle treatment, selection into heart failure (ABHF) or hypertrophy (ABHT) groups was based on echocardiographic and postmortem analysis, as follows: Inclusion criteria for ABHF group were increased lung weight (>2.5 g), increased posterior wall diameter in diastole (PWDd) (>2.0 mm) and increased left atrial diameter (>5.0 mm), while criteria for inclusion in the ABHT group were increased PWDd (>2.0 mm), increased left ventricular weight (>0.75 g) and preserved lung weight (<2.0 g).
(§1) Three days after AB, rats were stratified by the gradient over the stenosis to ensure similar degree of cardiac stress. Two and two stratified rats were randomized to either 6 mg/kg of the sulfated polysaccharide sodium pentosan polysulfate (PPS) (Interfarm AS, Norway) or vehicle (0.9% NaCl) injected subcutaneously every third day. […] Six weeks after AB or sham operation, the rats were examined by echocardiography and postmortem analysis, performed by experienced investigators (IS, JMA) blinded to treatment group.

[1] = tested on: ADAMTS1, -5, -8, versican, aggrecan, HAS-1, HAS-2, TIMP-3 and MT4-MMP mRNA; test: Myocardial mRNA expression of other ADAMTS, proteoglycans and modulators (qRT-PCR) in aortic banding rats; assay type: in vivo, rat; settings: AB-rats, PPS-treatment vs vehicle
Description: as §1
In addition, mRNA levels of proteins known to modulate ADAMTS activity or versican function were measured; tissue inhibitor of metalloprotease (TIMP)-3, hyaluronic acid (HA) synthase 1 and 2, and membrane-type (MT)4-MMP, while mRNA levels of ADAMTS1, -4, and versican were quantified in NFB and NCM.
Total RNA was isolated from the left ventricle in AB rats, neonatal rat cardiomyocytes and fibroblasts (RNeasy mini kit, Qiagen, Valencia, Calif.). […] The results were detected on an ABI PRISM 7900 Sequence Detection System (Applied Biosystems, CA).

[2] = PPS-treated vs vehicle-treated AB-rats
[3] = aortic banding rats, six weeks after AB

pentosan polysulfate [PPS]
side effects including haemorrhage (aortic banding rats; AB rats, 6 mg/kg s.c. every third day, observed at daily basis): no side effects
lung weight compared to vehicle (aortic banding rats; PPS-treated AB-rats): tendency towards lower
higher fractional shortening compared to vehicle-treated AB-rats (aortic banding rats; [2]): 23%
left ventricular diameter in systole as part of the diameter in vehicle-treated AB-rats (aortic banding rats; [2]): three quarters
Aorta (aortic banding rats; [3]): 2.56 ± 0.03 mm
FS (fractional shortening) (aortic banding rats; [3]): 59.2 ± 1.5%
Heart wt (aortic banding rats; [3]): 1.87 ± 0.09 g
IVSd (interventricular septal thickness at diastole) (aortic banding rats; [3]): 2.11 ± 0.06 mm
LAD (left atrial diameter) (aortic banding rats; [3]): 4.18 ± 0.14 mm
LV wt (aortic banding rats; [3]): 0.95 ± 0.07 g
LVDd (left ventricular diameter at diastole) (aortic banding rats; [3]): 6.53 ± 0.13 mm
LVDs (left ventricular diameter at systole) (aortic banding rats; [3]): 2.67 ± 0.12 mm
Lung wt (aortic banding rats; [3]): 1.64 ± 0.08 g
PWd (posterior wall thickness at diastole) (aortic banding rats; [3]): 2.13 ± 0.06 mm
RV wt (aortic banding rats; [3]): 0.18 ± 0.01 g
Tissue Doppler Maximal velocity (aortic banding rats; [3]): 50.70 ± 2.94
Tissue Doppler Minimal velocity (aortic banding rats; [3]): 59.06 ± 3.26
HR (heart rate) (aortic banding rats; [3]): 420 ± 6
Aorta (aortic banding rats; sham-operated rats, six weeks): 2.63 ± 0.04 mm
FS (fractional shortening) (aortic banding rats; sham-operated rats, six weeks): 53.6 ± 5.8%
Heart wt (aortic banding rats; sham-operated rats, six weeks): 1.19 ± 0.11 g
IVSd (interventricular septal thickness at diastole) (aortic banding rats; sham-operated rats, six weeks): 1.56 ± 0.04 mm
LAD (left atrial diameter) (aortic banding rats; sham-operated rats, six weeks): 3.68 ± 0.14 mm
LV wt (aortic banding rats; sham-operated rats, six weeks): 0.70 ± 0.03 g
LVDd (left ventricular diameter at diastole) (aortic banding rats; sham-operated rats, six weeks): 6.89 ± 0.10 mm
LVDs (left ventricular diameter at systole) (aortic banding rats; sham-operated rats, six weeks): 3.20 ± 0.41 mm
Lung wt (aortic banding rats; sham-operated rats, six weeks): 1.41 ± 0.03 g
PWd (posterior wall thickness at diastole) (aortic banding rats; sham-operated rats, six weeks): 1.68 ± 0.08 mm
RV wt (aortic banding rats; sham-operated rats, six weeks): 0.17 ± 0.01 g
Tissue Doppler Maximal velocity (aortic banding rats; sham-operated rats, six weeks): 72.9 ± 8.6
Tissue Doppler Minimal velocity (aortic banding rats; sham-operated rats, six weeks): 82.4 ± 6.1
HR (heart rate) (aortic banding rats; sham-operated rats, six weeks): 412 ± 11
mRNA levels of ADAMTS1, -5, -8, versican, aggrecan, HAS-1, HAS-2, TIMP-3 and MT4-MMP [1]: not affected
